Source: patent publication US9018176B2, “Inducers of hematopoiesis and fetal globin production for treatment of cytopenias and hemoglobin disorders” (priority 2010, dated 2015)
Values joined by “and” are separate entries in the source; they are usually repeats but may differ in a detail not shown here. Identical values can stand only once. Like-named read-outs stand apart in the source and are kept apart here.

Tests used:
γ-globin mRNA [1] = test: γ-globin mRNA in cultured primary human erythroid progenitors (BFU-e), real-time PCR; format: cell-based
Method: Erythroid progenitors were cultured from cord blood CD34+ cells. […] Each compound was tested in three different cultures. […] On day 14, RNA was extracted from cultured erythroid cells, and relative quantification PCR was performed. Briefly, cDNA was generated from equal amounts of total RNA extracted using The PerfectPure RNA Purification Kit (5 Prime Inc Gaithersburg, Md.). Real-time PCR was performed using an ABI 7500 Real-Time PCR system (Applied Biosystems, Foster City, Calif.). Levels of globin mRNA were calculated by the ΔΔCt method. […] GAPDH levels were used for standardization. Western blotting Nuclear extract of K562 cells and 14-day-old BFU-e were analyzed by electrophoresis using 5-24% gradient SDS-polyacrylamide mini-gels (BIORAD Laboratories. Hercules Calif.). Proteins in the gels were transferred to Immobilon-P membranes. Blots were then incubated with BCL11A polyclonal (Novus Biologicals, Littleton Co) or mouse monoclonal (Santa Cruz Biotechnology, Santa Cruz Calif.) antibodies, after washing blots were incubated with anti-rabbit IgG-horseradish peroxidase secondary antibody (ECL, Little Chalfont Buckinghamshire UK). BCL11A bands were detected on the X-ray film using Western Lightning Reagents (Perking Elmer Inc, Waltham, Mass.).

red blood cells = test: Adult human subject with alpha thalassemia trait given desloratidine; format: in vivo; conditions: 5 mg/day once per day, within 4 weeks
Method: Desloratidine was administered to an adult human subject with alpha thalassemia trait at a standard allergy treatment dose of 5 mg/day total, once per day. […] This is an unexpected and rapid rise in red blood cell levels in a mildly anemic subject. Accordingly, the inventors have discovered that desloratidine can be used to increase red blood cells in a subject at a dose of […] in order to increase the red blood levels in a subject in need of treatment. In some embodiments, the subject who is administered desloratidine is selected to have a low red blood count, or is anaemic or has a cytopenia as disclosed herein.

γ-globin [2] = test: Fetal globin (γ-globin mRNA, HbF) induction in phlebotomized anemic baboons; format: in vivo, baboons (Papio hamadryas anubis)
[3] = tested on: red blood cell production; test: Total hemoglobin and hematocrit in phlebotomized anemic baboons; format: in vivo, baboons (Papio hamadryas anubis); conditions: FIG. 12B; MS-275 3 mg/m^2 for 4 days and 2 weeks vs ST20 2 and 4 days; desloratadine 0.6 mg/kg for two days
Method: (§1) Studies to evaluate pharmacokinetic properties and γ-globin induction were performed in juvenile baboons (Papio hamadryas anubis). Briefly, animals were chronically phlebotomized on a daily basis to achieve stable anemia, maintaining a total hemoglobin level of 7.0 to 7.5 g/dl. Candidate compounds were administered intravenously or orally once daily in single doses for pharmacokinetic studies, or once daily in single doses, 4-5 days per week for 4-5 weeks, for pharmacodynamic studies. […] Levels of γ-globin mRNA expression and globin chain synthesis were assessed in baboons before and during treatment with test compounds. A washout period between administrations of different compounds in the same baboon was provided.
(§2) Chronically catheterized baboons were phlebotomized daily to create chronic anemia with total hemoglobin levels (Hb) between 7.0 to 7.5 g/dl which simulates the expanded erythropoiesis and anemia in sickle cell disease and beta thalassemia. Blood counts were drawn and total Hb (hemoglobin) and reticulocytes were analyzed on a hemavet analyzer. Fetal globin mRNA was analyzed by RT-PCR and proportions for f-cells were analyzed by flow cytometry. […] Desloratidine (0.6 mg/kg) was administered for 4 days following a washout period. Blood counts were obtained at least 3 days/week.
Baboon 1509 (weight 10.9 kg) was phlebotomized to induce anemia and marrow expansion, similar to the hemoglobin disorders.

CB BFU-E cells = test: CB BFU-E cell proliferation (cells/colony); conditions: FIG. 8
Method: Fetal globin-inducing activity in human erythroid progenitors was assessed. Human erythroid progenitors were cultured from peripheral blood samples, exposed to the test compounds at varying concentrations and for varying durations and analyzed for globin chain mRNA ratios. Erythroid progenitors were cultured from cord blood CD34+ cells. Briefly, CD34+ cells in the human cord blood were separated using a Ficoll-paque density gradient. CD34+ cells were cultured in H4230 medium containing 2 mM L-glutamine, 1% Methylcellulose in Iscove's Medium, 30% Fetal Bovine Serum, 1% Bovine Serum Albumin and 10^-4 M β-mercaptoethanol. Methylcellulose H4230 medium was supplemented with EPO (0.5 U/ml) and IL-3 (20 ng/ml) to support BFU-e growth. Cells were cultured in […] mini-dishes and incubated in a humidified atmosphere containing 5% CO2, at 37° C. Different concentrations of the test compounds were added at the time the cultures were established. Each compound was tested in three different cultures. BFU-e colonies grown in mini-dishes were counted on day 14 and harvested for mRNA analysis.

γ-globin mRNA [4] = test: γ-globin mRNA in cultured primary human erythroid progenitors (BFU-e), real-time PCR; format: cell-based; conditions: for fetal globin mRNA, Mean: vs untreated control cultures from the same subject
γ-globin mRNA [5] = test: γ-globin mRNA gene expression in K562 cells; format: cell-based; conditions: FIGS. 4A and 4B, K562 cells; Resveratrol 30 μM, desloratadine 50 μM, NSC 50 μM, Benserazine 5 μM
γ-globin [6] = test: Fetal globin (γ-globin mRNA, HbF) induction in phlebotomized anemic baboons; format: in vivo, baboons (Papio hamadryas anubis); conditions: for increase of fetal hemoglobin (HbF) protein levels above levels produced by erythroid stress alone: Desloratidine 0.6 mg/kg orally
Method: as §1, §2
Baboons HL-25 and HD50 were phlebotomized daily to create anemia with erythroid expansion. When stably anemic, Desloratidine (0.6 mg/kg) was administered orally, fetal hemoglobin (HbF) protein levels were assayed.

γ-globin gene promoter = test: High throughput screen: LCR-HS2 γ-globin gene promoter EGFP reporter cell assay; format: cell-based, human; conditions: pilot screen plate, fold increase relative to NC (negative control)
From the text: FIG. 1B is a schematic illustration showing an illustration of the method of the high throughput screening assay (HTS) with the cell construct comprising a locus control region (LCR) linked to the y-globin gene promoter and enhanced GFP (EGFP). A compound which activates γ-globin promoter will induce gene expression of EGFP which can be detected by a suitable detector.
A human cell-based assay which was previously used in low throughput assays, utilizing a 1.4-kilobase (kb) KpnI-BglII fragment of the HS2 of the locus control region (LCR) linked to the γ-globin gene promoter and the enhanced green fluorescent protein (EGFP) reporter gene, was adapted for high throughput screening and employed as the primary screen (FIG. 1A). Cytotoxic activity was assayed in a simultaneous counter screen. […] Several hits were immediately eliminated from further development as potential hemoglobinopathy therapeutics because of cytotoxicity (e.g., Idarubicin) or undesirable off-target effects, but nonetheless validated the HTS itself and were validated in secondary confirmatory assays as highly-potent HbF-inducers. […]

[7] = tested on: γ-globin reporter cell line; test: Cytotoxicity counter screen run simultaneously with the HTS; format: cell-based, human; conditions: simultaneous counter screen of the HTS
γ-globin [8] = conditions: in humans, about 3-fold less than in baboons; cited from earlier work
[9] = Desloratadine 3 uM, Cord Blood progenitors
[10] = Desloratadine 3 uM, Hemoglobin disorder progenitors

With `Clc1ccc2c(c1)CCc1cccnc1C2=C1CCNCC1` [Desloratadine, 8-Chloro-6,11-dihydro-11-(4-piperidinylidene)-5H-benzo[5,6]cyclohepta[1,2-b]pyridine] the “% induction of γ-globin mRNA gene expression” value (γ-globin mRNA [1]; FIG. 4C, HFU-E (burst-forming units-erythroid) cells, Resveratrol 30 μM, desloratadine 50 μM, NSC 50 μM, Benserazine 5 μM) was “most significant % increase”, the “effect in increasing % of γ-globin mRNA expression” value (γ-globin mRNA [1]; FIG. 6, BFU-e cells, Desloratadine 3 μM, Benserazide 3 μM, NSC5397 0.6 μM) was “greatest effect” and the Hemoglobin after treatment (red blood cells; increased from 10) was 11.5 g/gl. The hematocrit after treatment (red blood cells; increased from 30%) was 35%, the “Increase in γ-globin mRNA above baseline” value (γ-globin [2]; Baboon HD50, Desloratadine oral 0.55 mg/kg) was 350% and the “Increase in γ-globin mRNA above baseline” value (γ-globin [2]; Baboon HD50, Desloratadine oral 0.55 mg/kg, listed as Desloratidine) was 350%. For the same compound, the “Increase in γ-globin mRNA above baseline” value (γ-globin [2]; Baboon HL25, Desloratadine oral 0.55 mg/kg) was 386%, the “Increase in γ-globin mRNA above baseline” value (γ-globin [2]; Baboon HL25, Desloratadine oral 0.55 mg/kg, listed as Desloratidine) was 386% and the “blood total hemoglobin (Hb) levels compared with positive control ST20 (150 mg/kg)” value [3] was “significantly more effective”. The “number of blood cells per colony” value (CB BFU-E cells) was “increase the number of blood cells per colony”, the “responses (cultures with induced fetal globin mRNA)” value (shortened to “responses”) (γ-globin mRNA [4]; [9]) was 4/4 responses and the “fetal globin mRNA, Mean” value (γ-globin mRNA [4]; [9]) was 323 % of control. The “responses” value (γ-globin mRNA [4]; [10]) was 3/3 responses, the “fetal globin mRNA, single subjects” value (γ-globin mRNA [4]; Desloratadine 3 uM, Hemoglobin disorder progenitors (subjects)) was 121 % of control and 123 % of control and 274.2 % of control and the “fetal globin mRNA, Mean” value (γ-globin mRNA [4]; [10]) was 175 % of control. For the same compound, the “responses” value (γ-globin mRNA [4]; Desloratadine 3 uM, Normal progenitors) was 1 response, the “fetal globin mRNA, Mean” value (γ-globin mRNA [4]; Desloratadine 3 uM, Normal progenitors (ABM), 1 response) was 1098 % of control and the “γ-globin mRNA induction” value (γ-globin mRNA [4]; cultured primary human erythroid progenitors, concentrations pharmacologically achievable in humans) was “up to 6 fold”. The “% induction of γ-globin mRNA gene expression” value (γ-globin mRNA [5]) was “most significant % increase”, the “increase of fetal hemoglobin (HbF) protein levels above levels produced by erythroid stress alone” value (γ-globin [6]; Baboon HD50) was 170% and the “increase of fetal hemoglobin (HbF) protein levels above levels produced by erythroid stress alone” value (γ-globin [6]; Baboon HL25) was 193%. The “fetal globin mRNA” value (γ-globin [6]; Benserazide 1 or 3 mg/kg in baboon 1509, MS-275 and desloratidine) was “induced”, the “γ-globin mRNA expression in blood compared with positive control ST20 (150 mg/kg)” value (γ-globin [6]; FIG. 12A, MS-275 3 mg/m^2 for 4 days and 2 weeks, desloratadine 0.6 mg/kg for two days vs ST20 after 2 or 4 days) was “more effective” and the “time of treatment to detected fetal globin induction and increased HbF” value (γ-globin [6]; desloratidine, same baboon as ST-20) was at most 4 days.
In the case of `CC(=O)[C@]1(O)Cc2c(O)c3c(c(O)c2[C@@H](O[C@H]2C[C@H](N)[C@H](O)[C@H](C)O2)C1)C(=O)c1ccccc1C3=O` [Idarubicin, idarubicin], the “fold induction of the γ-globin promoter” value (γ-globin gene promoter) is reported as 8 fold and the “cytotoxicity (reason for elimination from further development)” value [7] is reported as “cytotoxicity”.
In the case of `CCC(C)(C)C(=O)[O-].[Na+]` [ST20, sodium 2,2-dimethylbutyrate], the “dose required to increase HbF expression” value (γ-globin [8]) is listed as 20 to 50 mg/kg, the “Increase in γ-globin mRNA above baseline” value (γ-globin [6]; Baboon HD50, ST20 oral 150 mg/kg) is listed as 310% and the “time of treatment after which fetal globin (HbF) mRNA increased” value (γ-globin [6]; ST-20, same baboon as desloratidine) is listed as 2 weeks. For the same compound, the “dose required to increase HbF expression” value (γ-globin [6]; in baboons) was 50 to 150 mg/kg.
